What follows are molecules tested against T1, PI3Kγ (p101/p110γ protein) (Homo sapiens, UniProt P48736) (assay: PI3Kγ In Vitro Kinase Assay). Details: purified recombinant p101/p110γ with G protein β1/γ2 subunits; 20 μM ATP, 25 μM PIP2; 20 minutes at room temperature.
T1 construct: HA; made in house; host or cells: Spodoptera frugiperda (Sf9) cells, baculovirus co-infection
Format: biochemical
In short: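 Sf9-expressed, purified human p101/p110γ (2.7 nM) was activated by Gβ1/γ2 (57.7 nM) and reacted with 20 μM ATP plus [γ-32P]ATP on PIP2 (25 μM)/PE (300 μM) micelles with 10 mM MgCl2 in HEPES buffer. Reactions ran 20 min at room temperature. Filter-captured radiolabeled PIP3 was counted by scintillation.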

T1 sequence (P48736 whole entry, species assumed): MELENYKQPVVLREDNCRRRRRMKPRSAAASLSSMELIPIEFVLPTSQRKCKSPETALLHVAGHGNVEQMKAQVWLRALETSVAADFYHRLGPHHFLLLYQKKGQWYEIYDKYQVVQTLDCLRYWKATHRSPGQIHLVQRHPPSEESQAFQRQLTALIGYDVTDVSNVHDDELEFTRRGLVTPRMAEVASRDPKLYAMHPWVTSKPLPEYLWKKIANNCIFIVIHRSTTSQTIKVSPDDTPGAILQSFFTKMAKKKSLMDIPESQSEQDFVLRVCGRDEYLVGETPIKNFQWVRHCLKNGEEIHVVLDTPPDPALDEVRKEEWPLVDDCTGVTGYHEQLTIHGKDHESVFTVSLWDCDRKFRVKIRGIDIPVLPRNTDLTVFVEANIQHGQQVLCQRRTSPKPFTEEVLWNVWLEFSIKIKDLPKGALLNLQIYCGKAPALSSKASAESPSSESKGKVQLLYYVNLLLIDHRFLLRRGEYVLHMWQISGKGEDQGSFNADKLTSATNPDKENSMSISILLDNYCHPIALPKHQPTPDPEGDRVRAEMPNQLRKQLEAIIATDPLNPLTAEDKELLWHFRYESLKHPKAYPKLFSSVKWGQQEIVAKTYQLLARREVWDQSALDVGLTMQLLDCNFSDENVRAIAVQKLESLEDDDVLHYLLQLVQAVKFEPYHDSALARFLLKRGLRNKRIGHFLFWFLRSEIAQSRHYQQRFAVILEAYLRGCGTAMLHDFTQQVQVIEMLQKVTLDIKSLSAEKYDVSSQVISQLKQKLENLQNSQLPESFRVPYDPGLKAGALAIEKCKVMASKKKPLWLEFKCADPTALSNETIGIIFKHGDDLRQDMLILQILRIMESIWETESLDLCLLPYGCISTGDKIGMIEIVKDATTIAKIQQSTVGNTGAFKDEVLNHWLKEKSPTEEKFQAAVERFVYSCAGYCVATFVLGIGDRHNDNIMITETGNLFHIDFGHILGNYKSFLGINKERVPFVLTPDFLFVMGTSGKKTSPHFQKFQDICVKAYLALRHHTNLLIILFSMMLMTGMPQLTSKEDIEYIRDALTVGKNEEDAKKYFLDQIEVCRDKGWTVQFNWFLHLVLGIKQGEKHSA
T1 sequence (Q8WYR1 whole entry partner, species assumed): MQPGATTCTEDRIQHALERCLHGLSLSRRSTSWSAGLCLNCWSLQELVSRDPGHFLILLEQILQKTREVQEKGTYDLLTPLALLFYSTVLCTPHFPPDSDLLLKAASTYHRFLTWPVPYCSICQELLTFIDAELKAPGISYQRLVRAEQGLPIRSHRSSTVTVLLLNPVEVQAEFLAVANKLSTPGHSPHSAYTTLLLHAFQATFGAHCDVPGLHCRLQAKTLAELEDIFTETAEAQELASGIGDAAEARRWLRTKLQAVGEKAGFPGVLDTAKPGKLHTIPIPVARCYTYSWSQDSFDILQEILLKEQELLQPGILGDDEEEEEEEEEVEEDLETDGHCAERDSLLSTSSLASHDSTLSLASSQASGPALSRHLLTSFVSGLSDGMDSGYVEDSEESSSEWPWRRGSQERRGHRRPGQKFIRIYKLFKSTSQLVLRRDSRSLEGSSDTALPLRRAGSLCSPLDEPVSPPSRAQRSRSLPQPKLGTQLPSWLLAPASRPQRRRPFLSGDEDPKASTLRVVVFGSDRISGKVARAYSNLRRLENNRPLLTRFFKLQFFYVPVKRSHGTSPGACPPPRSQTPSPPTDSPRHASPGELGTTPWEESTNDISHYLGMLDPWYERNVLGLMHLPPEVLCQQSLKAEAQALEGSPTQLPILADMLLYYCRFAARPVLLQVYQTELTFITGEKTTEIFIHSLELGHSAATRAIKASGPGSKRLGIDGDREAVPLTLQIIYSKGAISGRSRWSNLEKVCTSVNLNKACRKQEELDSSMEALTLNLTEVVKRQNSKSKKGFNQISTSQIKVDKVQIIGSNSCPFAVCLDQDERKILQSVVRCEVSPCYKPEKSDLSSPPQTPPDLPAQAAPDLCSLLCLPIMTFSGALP

**Q.** For `O=C1NC(=S)SC1=Cc1ccc2c(c1)N(CCc1cc(C(F)(F)F)cc(C(F)(F)F)c1)C(=O)CO2` [Example 113, 4-[2-(Bis-trifluromethyl-phenyl)-ethyl]-6-(4-oxo-2-thioxo-thiazolidin-5-ylidenmethyl)-4H-benzo[1,4]oxazin-3-one], which IC50 is on record?
**A.** 0.014 µM

**Q.** With `O=C1COc2ccc(C=C3OC(=S)NC3=O)cc2N1` [Example 84, 6-(4-Oxo-2-thioxo-oxazolidin-5-ylidenemethyl)-4H-benzo[1,4]oxazin-3-one] as the molecule, how does the IC50 read?
**A.** 0.06 µM

**Q.** How did the IC50 turn out when `COC(=O)c1cc(C)cc(CN2C(=O)COc3ccc(C=C4SC(=S)NC4=O)cc32)c1` [Example 118] was run?
**A.** 0.023 µM

**Q.** For `O=C1CC(=Cc2ccc3c(c2)NC(=O)CO3)C(=O)N1` [Example 86, 3-(3-Oxo-3,4-dihydro-2H-benzo[1,4]oxazin-6-ylmethylene)-pyrrolidine-2,5-dione], which IC50 is on record?
**A.** 12.3 µM

**Q.** `O=C1NC(=S)SC1=Cc1ccc2c(c1)N(CC1CCCCC1)C(=O)CO2` [Example 143, 4-Cyclohexylmethyl-6-(4-oxo-2-thioxo-thiazolidin-5-ylidenemethyl)-4H-benzo[1,4]oxazin-3-one] was tested. Which IC50 did it give?
**A.** 0.035 µM

**Q.** With `CN1CCN(Cc2ccc(CN3C(=O)COc4ccc(C=C5SC(=O)NC5=O)cc43)cc2)CC1` [Example 228, 5-{4-[4-(4-Methyl-piperazin-1-ylmethyl)-benzyl]-3-oxo-3,4-dihydro-2H-1,4-benzoxazin-6-ylmethylene}-thiazolidine-2,4-dione] as the molecule, how does the IC50 read?
**A.** 0.003 µM

**Q.** For `O=C1NC(=S)SC1=Cc1cc(Cl)c2c(c1)N(Cc1ccc(CN3CCCCC3)cc1)C(=O)CO2` [Example 79, 8-Chloro-6-(4-oxo-2-thioxo-thiazolidin-5-ylidenemethyl)-4-(4-piperidin-1-ylmethyl-benzyl)-4H-1,4-benzoxazin-3-one; compound with Toluene-4-sulfonic acid], which IC50 is on record?
**A.** 0.02 µM

**Q.** `O=C1NC(=S)SC1=Cc1ccc2c(c1)N(Cc1ccoc1)C(=O)CO2` [Example 340, 4-Furan-3-ylmethyl-6-(4-oxo-2-thioxo-thiazolidin-5-ylidenemethyl)-4H-1,4-benzoxazin-3-one] was tested. Which IC50 did it give?
**A.** 0.013 µM

**Q.** `CC(C)(C)CCN1C(=O)COc2ccc(C=C3SC(=S)NC3=O)cc21` [Example 155, 4-(3,3-Dimethyl-butyl)-6-(4-oxo-2-thioxo-thiazolidin-5-ylidenemethyl)-4H-1,4-benzoxazin-3-one] was tested. Which IC50 did it give?
**A.** 0.01 µM

**Q.** Which IC50 does the source give for `O=C1NC(=S)SC1=Cc1ccc2c(c1)N(Cc1cc(OS(=O)(=O)C(F)(F)F)cc(OS(=O)(=O)C(F)(F)F)c1)C(=O)CO2` [Example 44, Trifluoro-methanesulfonic acid 3-[3-oxo-6-(4-oxo-2-thioxo-thiazolidin-5-ylidenemethyl)-2,3-dihydro-1,4-benzoxazin-4-ylmethyl]-5-trifluoromethanesulfonyloxy-phenyl ester] here?
**A.** 0.265 µM

**Q.** Which IC50 does the source give for `CC(C)(C)c1cc(CO)cc(CN2C(=O)COc3c(F)cc(/C=C4\SC(=S)NC4=O)cc32)c1` [Example 284, 4-(3-tert-Butyl-5-hydroxymethyl-benzyl)-8-fluoro-6-[4-oxo-2-thioxo-thiazolidin-(5Z)-ylidenemethyl]-4H-benzo[1,4]oxazin-3-one] here?
**A.** 0.01 µM

**Q.** For `CN1CC(=O)Nc2cc(C=C3SC(=S)NC3=O)ccc21` [Example 190, 4-Methyl-7-(4-oxo-2-thioxo-thiazolidin-5-ylidenemethyl)-3,4-dihydro-1H-quinoxalin-2-one], which IC50 is on record?
**A.** 0.24 µM

**Q.** For `COC(=O)c1cccc(CN2C(=O)COc3ccc(C=C4SC(=S)NC4=O)cc32)c1` [Example 8, 3-[3-Oxo-6-(4-oxo-2-thioxo-thiazolidin-5-ylidenemethyl)-2,3-dihydro-1,4-benzoxazin-4-ylmethyl]-benzoic acid methyl ester], which IC50 is on record?
**A.** 0.081 µM

**Q.** For `CS(=O)(=O)c1ccc(CN2C(=O)COc3ccc(C=C4SC(=S)NC4=O)cc32)cc1` [Example 192, 4-(4-Methanesulfonyl-benzyl)-6-(4-oxo-2-thioxo-thiazolidin-5-ylidenemethyl)-4H-1,4-benzoxazin-3-one], which IC50 is on record?
**A.** 0.008 µM
